Source: article PMC4778863, “A Four-Point Screening Method for Assessing Molecular Mechanism of Action (MMOA) Identifies Tideglusib as a Time-Dependent Inhibitor of Trypanosoma brucei GSK3β” (PLoS Neglected Tropical Diseases, 2016)
Where two headings read alike, the source gives them in different places.

What was measured:
[1] = biological target: T1, TbGSK3β (Trypanosoma brucei brucei, UniProt Q388M1); test: biochemical; format: biochemical; conditions: for Ratio Preinc/no preinc: % inhibition at 30 min preincubation / % inhibition at 0 min preincubation at 10 μM ATP; for ATP competition following preincubation / ATP competition without preincubation: 10 μM versus 100 μM ATP; for ATP competition following preincubation: 30 min preincubation; for time dependence: effect of 30 min preincubation on TbGSK3β activity: four point MMOA assay, 10 μM and 100 μM ATP
T1 construct: Full-length TbGSK3β (Gene DB ID Tb927.10.13780); 6X His (C); made in house; host or cells: BL21 (DE3) E. coli
T1 sequence (Q388M1 1-352): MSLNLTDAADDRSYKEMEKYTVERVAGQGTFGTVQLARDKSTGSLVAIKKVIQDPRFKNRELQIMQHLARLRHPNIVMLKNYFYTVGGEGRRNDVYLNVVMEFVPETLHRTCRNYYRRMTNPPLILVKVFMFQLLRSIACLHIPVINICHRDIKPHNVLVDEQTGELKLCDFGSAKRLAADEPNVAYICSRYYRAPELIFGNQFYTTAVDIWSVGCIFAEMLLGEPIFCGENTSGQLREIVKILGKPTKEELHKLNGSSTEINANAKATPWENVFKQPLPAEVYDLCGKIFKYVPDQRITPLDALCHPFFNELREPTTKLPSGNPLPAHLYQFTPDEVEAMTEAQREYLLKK
Description: TbGSK3β activity was measured by following the ADP formation associated with the phosphorylation of GSM peptide and detected with ADP-Glo at 23°C. The enzyme reaction was conducted in a volume of 20 μL in a buffer containing 20 mM NaCl, 15 mM HEPES pH 7.4, 1 mM EGTA, 10 mM MgCl2, 0.02% Tween. These assays contained GSM at 10μM (approximating Km) or 80 μM (approximating Vmax). ATP was added at 10 μM and 100 μM to approximate Km and Vmax, respectively.
All reactions were incubated for 5 minutes in microcentrifuge tubes, and reactions were terminated at 80°C for 4 min. Of 20 μL reactions, 17.5 μL were transferred into 384 well-plates. Promega ADP-Glo procedures were carried out and phosphorylation measured by Luminoskan Ascent (Thermo Labsystems, Waltham MA). For pre-incubation experiments, TbGSK3β was preincubated at room temperature with inhibitor, GSM and buffer for 30 min. Inhibitors were added in DMSO to a final concentration of DMSO in the reactions of <5%. The kinase reaction was then started by adding ATP. For non-preincubation reactions, the kinase reactions were started by adding TbGSK3β to a mixture containing inhibitor, ATP, GSM and buffer. DMSO was added to all control reactions.
IC50 for inhibition TbGSK3β was determined as a function of preincubation time (Fig 3). Preincubated reactions were preincubated with inhibitor, TbGSK3β, GSM peptide, and buffer at room temperature; after 30 minutes reactions were initiated with the addition of ATP. Reactions with 0 min preincubation were initiated with the addition of TbGSK3β. Reactions were run for 5 min at room temperature, and stopped at 80°C. ADP product formation was measured by ADP-Glo kit.
Preincubated reactions were preincubated with inhibitor, TbGSK3β, GSM peptide, and buffer at room temperature; after 30 minutes reactions were initiated with the addition of ATP. Reactions with 0 min preincubation were initiated with the addition of TbGSK3β. Reactions were run for 5 min at room temperature, and stopped heat at 80°C, followed by ice bath, and ADP product formation was measured by ADP-Glo kit. All concentrations of tideglusib and controls with and without TbGSK3β were kept at 1% DMSO. Black = 30 minute preincubation Grey = 0 minute preincubation.
Time dependent inhibition was evaluated by preincubation of TbGSK3β with 60 nM tideglusib and 6 nM GW-8510 with 10μM and 100μM ATP. […] (B). […] All reactions preincubated or not preincubated with TbGSK3β for 30 min at room temperature. Experiments run with 10μM GSM peptide, 10μM ATP, and buffer. Minute preincubation (30 min) was preincubated with inhibitor, TbGSK3β, GSM peptide, and buffer. ATP was mixed to initiate reaction. No preincubation contained inhibitor, GSM peptide, ATP, and buffer. The reaction was initiated with TbGSK3β. Reactions were run at room temperature for 5 min and stopped at 80°C. ADP formed was measured by ADP-Glo kit. Values are mean +/- standard error. N = 3 for each experiment and experiments were run in duplicates. Control reactions contained DMSO and background was determined using a zero time incubation and subtracted from all reactions. Black = 30 min preincubation Grey = No preincubation.

[2] = biological target: T1, TbGSK3β; test: Irreversibility: TbGSK3β activity following 100-fold dilution; format: biochemical; conditions: 100 nM inhibitor preincubated 30 min with 50 nM TbGSK3β, diluted 100 fold into 100 μM ATP, 80 μM GSM; up to 2 hr
Description: Tideglusib and GW8510 were evaluated for irreversibility by measuring the TbGSK3β activity following a 100-fold dilution with reaction buffer. In these experiments tideglusib and GW8510 [100 nM] were preincubated with 50 nM TbGSK3β for 30 min at which time the reaction was diluted 100 fold into a solution containing 100 μM ATP and 80 μM GSM. The activity was then measured for up to two hours (Fig 6). […] The final concentration of tideglusib and GW8510 following dilution was 1 nM.
Tideglusib [100 nM, GW8510 [100 nM] and DMSO were preincubated with 50 nM TbGSK3 for 30 min. After a 100 fold dilution activity was measured and compared to DMSO containing reaction. Data expressed percent inhibition of DMSO activity. Data represent the average of two separate experiments for GW8510 and three for tideglusib. All points in each experiment were run in duplicate.

[3] = system: T. brucei brucei strain 427; conditions: cited from earlier work
[4] = system: Bloodstream form Trypanosoma brucei; test: Parasite assay: trypanosome proliferation, 48 hours, Coulter Counter; format: cell-based, strain CA427; conditions: read-out: GI50 (concentration at which trypanosome proliferation was inhibited by 50%)
[5] = system: Trypanosomes; test: Trypanosome viability after short term (6 hour) exposure and wash-out; format: cell-based, Trypanosoma brucei; conditions: for trypanosome proliferation/viability after removal of drug following 6 hour exposure: drug-free medium, monitored for 44 hours
Description: The effect of tideglusib on trypanosome viability after short term exposure was evaluated to determine if the molecule is cidal or cytostatic.
Fig 9 Trypanosome viability after short term exposure with tideglusib. Trypanosomes (5 x 10^5/mL in HMI-9 medium) were treated with pentamidine (or water solvent control) or tideglusib (5 μM, 10 μM, or DMSO solvent control) for 6 hours (37°C, 5% CO2) and then cultured in drug-free treatment as detailed in panel (A). Trypanosome densities were determined after 6 hour treatment (B), and the drugs washed from the cells by centrifugation and resuspension in fresh medium (to a density of 0.5 x 10^5/mL). Trypanosome proliferation in the fresh medium was monitored for 44 hours (37°C, 5% CO2) (C). Error between four separate cultures are shown.

[6] = system: human GSK3β; parameters: method as in PMID 22102280; conditions: following preincubation; read-out: IC50 against human GSK3β; cited from earlier work
[7] = parameters: method as in PMID 19523516; conditions: mice; oral administration; cited from earlier work
[8] = cited from earlier work
[9] = substrate: CC(C)C[C@H](NC(=O)[C@H](CO)NC(=O)[C@@H]1CCCN1C(=O)[C@H](CO)NC(=O)[C@@H]1CCCN1C(=O)[C@@H]1CCCN1C(=O)[C@@H](NC(=O)[C@H](CO)NC(=O)[C@H](C)NC(=O)[C@@H]1CCCN1C(=O)[C@H](CCCNC(=N)N)NC(=O)[C@H](CCCNC(=N)N)NC(=O)[C@@H](N)CCCNC(=N)N)C(C)C)C(=O)N[C@@H](CO)C(=O)N[C@@H](CCCNC(=N)N)C(=O)N[C@@H](Cc1c[nH]cn1)C(=O)N[C@@H](CO)C(=O)N[C@@H](COP(=O)(O)O)C(=O)N[C@@H](Cc1c[nH]cn1)C(=O)N[C@@H](CCC(N)=O)C(=O)N[C@@H](CCCNC(=N)N)C(=O)N[C@@H](CCCNC(=N)N)C(=O)O; test: purified protein, by the assay type; format: biochemical; conditions: other: substrate versus rate plots (Fig 2); pH 7.4
[10] = IC50, 10 μM ATP and 10 μM GSM, ± standard deviation, n = 3
[11] = 10 μM ATP and 10 μM GSM, ± standard deviation, n = 3, read-out: IC50
[12] = IC50 for inhibition TbGSK3β, non-preincubated reactions, 0 min preincubation, 10 μM GSM, 10 μM ATP, kinase 10 nM
[13] = IC50 for inhibition TbGSK3β, preincubated reactions, 30 min preincubation with inhibitor, TbGSK3β, GSM, 10 μM GSM, 10 μM ATP, kinase 10 nM

Nc1ncnc2c1ncn2[C@@H]1O[C@H](COP(=O)(O)OP(=O)(O)OP(=O)(O)O)[C@@H](O)[C@H]1O [ATP]
Km ([1]; substrate versus rate plots (Fig 2)): 21 µM

Cc1cc(Nc2nc(N[C@@H](C)c3ccc(F)cc3)c(C#N)cc2F)n[nH]1 [AZ960]
IC50 [1, 10]: 4100 ± 1270 nM

Cc1c[nH]c(-c2cnc(NCCNc3ccc(C#N)cn3)nc2-c2ccc(Cl)cc2Cl)n1 [CT99021]
IC50 [1, 11]: 200 ± 80 nM | Ratio Preinc/no preinc [1]: 0.97

O=C1Nc2ccc3ncsc3c2/C1=C/Nc1ccc(S(=O)(=O)Nc2ccccn2)cc1 [GW8510]
percent inhibition of activity at lower ATP ([1]; 10 μM ATP, irrespective of preincubation time, four point MMOA assay (Fig 4)): 67% | ATP competition following preincubation [1]: competitive | ATP competition without preincubation ([1]; no preincubation): competed with ATP | percent inhibition of activity at higher ATP ([1]; 100 μM ATP, irrespective of preincubation time, four point MMOA assay (Fig 4)): 28% | IC50 [1, 12]: 15.1 nM | IC50 [1, 13]: 14.5 nM | time dependence: effect of 30 min preincubation on TbGSK3β activity [1]: no effect | enzyme activity following 100-fold dilution (reversibility) [2]: enzyme activity was recovered | EC50 ([3]; 48 hr, read-out: EC50 in parasite growth assay): 119 nM | EC50 ([3]; read-out: cellular activity against T. brucei): 120 nM

Cc1cc(Nc2cc(CN3CCOCC3)c3nc(C)c(Cc4ccc(Cl)cc4F)n3n2)n[nH]1 [LY278544]
IC50 [1, 11]: 500 ± 120 nM | Ratio Preinc/no preinc [1]: 0.83

Nc1cccc(-c2cc3c(Oc4cccc(O)c4)ncnc3[nH]2)c1 [TWS119]
IC50 [1, 11]: 600 ± 140 nM | Ratio Preinc/no preinc [1]: 1

O=c1sn(-c2cccc3ccccc23)c(=O)n1Cc1ccccc1 [Tideglusib]
ATP competition following preincubation [1]: non-competitive behavior | ATP competition without preincubation ([1]; no preincubation): competed with ATP | shift in activity at higher concentration of peptide substrate GSM ([1]; 80 μM versus 10 μM GSM, 10 μM ATP, tideglusib 0.06 μM (S1 Fig)): […] | Ratio Preinc/no preinc [1]: […] | IC50 [1, 10]: […] | IC50 [1, 12]: […] | IC50 [1, 13]: 43 nM | time dependence: effect of 30 min preincubation on TbGSK3β activity [1]: decreased the enzyme activity following preincubation | progress curves: percent inhibition / rate of product formation with time ([1]; no preincubation, 100 μM ATP, 80 μM GSM, 5-60 min): […] | enzyme activity following 100-fold dilution (reversibility) [2]: […] | GI50 [4]: 2300 nM | trypanosome proliferation during 6 hour treatment ([5]; 10 μM, 5 x 10^5/mL): […] | trypanosome growth during 6 hour treatment ([5]; 5 or 10 μM, high trypanosome density 5 x 10^5/mL): markedly slowed trypanosome growth | growth rate after recovery from exposure ([5]; after the initial lag in recovered growth): […] | trypanosome proliferation/viability after removal of drug following 6 hour exposure [5]: […] | cidal or cytostatic ([5]; high trypanosome cell densities): cytostatic | IC50 [6]: […] | Blood levels [7]: […] | Blood levels (molar) [7]: ~6.7 µM | tolerability in phase II studies ([8]; Alzheimer's disease and progressive supranuclear palsy): well-tolerated | tolerability in clinical trial ([8]; escalating doses of up to 1000 mg/day, 30 Alzheimer's patients, 6 weeks): generally well tolerated

N=C(N)c1ccc(OCCCCCOc2ccc(C(=N)N)cc2)cc1 [pentamidine]
trypanosome proliferation/viability after removal of drug following 6 hour exposure [5]: killed all observed trypanosomes

B1: TbGSK3β (Trypanosoma brucei brucei TREU927) (protein)
chain: MSLNLTDAADDRSYKEMEKYTVERVAGQGTFGTVQLARDKSTGSLVAIKKVIQDPRFKNRELQIMQHLARLRHPNIVMLKNYFYTVGGEGRRNDVYLNVVMEFVPETLHRTCRNYYRRMTNPPLILVKVFMFQLLRSIACLHIPVINICHRDIKPHNVLVDEQTGELKLCDFGSAKRLAADEPNVAYICSRYYRAPELIFGNQFYTTAVDIWSVGCIFAEMLLGEPIFCGENTSGQLREIVKILGKPTKEELHKLNGSSTEINANAKATPWENVFKQPLPAEVYDLCGKIFKYVPDQRITPLDALCHPFFNELREPTTKLPSGNPLPAHLYQFTPDEVEAMTEAQREYLLKK
notes: Full-length TbGSK3β (Gene DB ID Tb927.10.13780); 6X His (C); made in house; host or cells: BL21 (DE3) E. coli
Km [9]: 23 µM
